Source: patent publication EP4471048A1, “PEPTIDE INHIBITORS OF INTERLEUKIN-23 RECEPTOR” (Zealand Pharma A/S, priority 2023, dated 2024)

Molecular target: IL-23 mediated signalling (Homo sapiens, UniProt Q5VWK5)
Assay: Functional inhibition of IL-23 mediated STAT3 signalling (phospho-STAT3 MSD) in DB cells
Type: cell-based
Settings: DB cells, hIL-23 at EC80
In short: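 DB cells preincubated with inhibitor 15 min at 37 °C, then stimulated 90 min with EC80 human IL-23; lysate phospho-STAT3 measured by MSD electrochemiluminescence. Signal normalized to IL-23-alone and buffer controls; IC50 and maximal % inhibition from 4-parameter logistic fit.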

IL-23 mediated signalling, sequence (Q5VWK5 24-629 limits assumed): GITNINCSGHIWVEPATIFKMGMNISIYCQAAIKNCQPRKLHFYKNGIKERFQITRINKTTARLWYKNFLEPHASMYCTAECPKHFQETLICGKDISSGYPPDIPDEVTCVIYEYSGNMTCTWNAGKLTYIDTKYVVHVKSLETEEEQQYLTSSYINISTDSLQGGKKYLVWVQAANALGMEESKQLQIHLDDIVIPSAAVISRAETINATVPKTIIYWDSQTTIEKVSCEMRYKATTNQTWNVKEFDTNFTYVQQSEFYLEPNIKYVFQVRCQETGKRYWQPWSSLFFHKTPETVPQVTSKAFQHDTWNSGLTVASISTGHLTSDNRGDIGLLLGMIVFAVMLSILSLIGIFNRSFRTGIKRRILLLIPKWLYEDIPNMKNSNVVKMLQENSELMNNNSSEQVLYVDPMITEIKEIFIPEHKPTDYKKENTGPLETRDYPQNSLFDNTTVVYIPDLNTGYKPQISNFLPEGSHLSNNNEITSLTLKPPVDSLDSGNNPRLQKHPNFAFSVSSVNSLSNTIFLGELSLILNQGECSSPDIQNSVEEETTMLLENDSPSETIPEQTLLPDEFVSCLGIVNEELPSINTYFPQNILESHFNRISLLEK

IC50 (SAR tables 2-1 to 2-7, read-out: IC50 (pSTAT3)): 0.23 nM
Emax (Table 3-2, maximal inhibitory response, read-out: hIL-23 (pSTAT3) antagonist % inhibition): 102%
Structure (SMILES): CC(C)C[C@]1(C)NC(=O)[C@H](Cc2ccc3ccccc3c2)NC(=O)[C@H](Cc2ccc(OCCN)cc2)NC(=O)[C@@H]2CCC(=O)N[C@H](CCCCNC(=O)CC[C@@H](C(=O)N[C@@H](CCN)C(=O)N[C@@H](Cc3cccnc3)C(N)=O)NC1=O)C(=O)N[C@@H]([C@@H](C)O)C(=O)N[C@@H](C(C)C)C(=O)N[C@@H](Cc1c[nH]c3ccccc13)C(=O)N[C@@H](CCC(N)=O)C(=O)N2 [Compound 1, [{d}K](1c)(6c)^†TVWQE(6c)[Y(2-aminoethoxy)][2-Nal][2-Me-Leu]E(1c)[Dab][3-(3-Pyridyl)-Ala]-[NH2]]
